Several values for one entry are separate records, joined by “and”; a condition that tells them apart may be missing. Equal entries are not always repeated. Where two headings read alike, the source gives them in different places.
Assays:
[1] = test system: human bronchial smooth muscle cells; assay: Histamine-induced depolarization of human bronchial smooth muscle cells (FLIPR membrane potential); format: cell-based; conditions: read-out: Histamine Depolarization of ASM Cells (IC50)
Description: Cultured human bronchial smooth muscle cells (BSMC) from Lonza were resuspended in Smooth Muscle Growth Medium-2 (SmGM-2; Lonza) at a concentration of 4 × 10^5 cells per ml. One hundred microliters of cells per well were plated in a black wall clear bottom polystyrene 96-well tissue culture plate and incubated in a 37°C humidified incubator with 5% CO2 overnight. Cells were serum starved by removing the SmGM-2 and replaced with one hundred microliters per well of Smooth Muscle Cell Basal Medium 2 (SmBM-2), phenol red-free (PromoCell), and incubated in a 37°C humidified incubator with 5% CO2 for 24 h. SmBM-2 was replaced with 100 microliters of fresh SmBM-2. Compounds were dissolved in 100% DMSO and serially diluted ½ log in a polypropylene 96-well microtiter plate (drug plate). Columns 6 and 12 were reserved as controls (HI control and LO control respectively) and contained only DMSO. Serially diluted compounds were diluted in SmBM-2 to 10X the final concentration. Twenty-five microliters of 10X compound titrations, and one hundred microliters of Blue dye-loading buffer (FLIPR Membrane Potential Assay Kit; Molecular Devices) were added to the cells. Cells were pre-incubated at room temperature with compound for 0.5 h. Five micromolar (10X) histamine was prepared in SmBM-2. Using the FLIPR-Tetra (Molecular Devices), three measurements of the baseline fluorescence were taken over the span of 1 min. Twenty-five microliters per well of 10X histamine were added to the first 11 columns of the plate containing the compound treated cells. Twenty-five microliters of SmBM-2 were added to column 12 for the LO control. Fifty-five fluorescence measurements were taken over the span of 14 min. The area under the curve (AUC) from the fluorescence kinetic traces (normalized to baseline fluorescence) were calculated. The amount of fluorescence in the presence of compound compared with that in the presence of DMSO vehicle alone (HI control) was calculated using the formula: % control (POC) = (compd – average LO)/(average HI – average LO)^∗100.

hTMEM16A (abc) = biological target: T1, hTMEM16A (abc) (Homo sapiens, UniProt Q5XXA6, DEL476-501); assay: medchem TMEM16A halide-sensitive YFP assay, 22-point dose-response; format: cell-based; parameters: expressed in transfected cells; conditions: for scope of block of ionomycin-induced iodide eYFP quenching: up to 55.6 μM
T1 sequence (Q5XXA6 with tags, fused parts or gaps isoform Q5XXA6-5 DEL539-564): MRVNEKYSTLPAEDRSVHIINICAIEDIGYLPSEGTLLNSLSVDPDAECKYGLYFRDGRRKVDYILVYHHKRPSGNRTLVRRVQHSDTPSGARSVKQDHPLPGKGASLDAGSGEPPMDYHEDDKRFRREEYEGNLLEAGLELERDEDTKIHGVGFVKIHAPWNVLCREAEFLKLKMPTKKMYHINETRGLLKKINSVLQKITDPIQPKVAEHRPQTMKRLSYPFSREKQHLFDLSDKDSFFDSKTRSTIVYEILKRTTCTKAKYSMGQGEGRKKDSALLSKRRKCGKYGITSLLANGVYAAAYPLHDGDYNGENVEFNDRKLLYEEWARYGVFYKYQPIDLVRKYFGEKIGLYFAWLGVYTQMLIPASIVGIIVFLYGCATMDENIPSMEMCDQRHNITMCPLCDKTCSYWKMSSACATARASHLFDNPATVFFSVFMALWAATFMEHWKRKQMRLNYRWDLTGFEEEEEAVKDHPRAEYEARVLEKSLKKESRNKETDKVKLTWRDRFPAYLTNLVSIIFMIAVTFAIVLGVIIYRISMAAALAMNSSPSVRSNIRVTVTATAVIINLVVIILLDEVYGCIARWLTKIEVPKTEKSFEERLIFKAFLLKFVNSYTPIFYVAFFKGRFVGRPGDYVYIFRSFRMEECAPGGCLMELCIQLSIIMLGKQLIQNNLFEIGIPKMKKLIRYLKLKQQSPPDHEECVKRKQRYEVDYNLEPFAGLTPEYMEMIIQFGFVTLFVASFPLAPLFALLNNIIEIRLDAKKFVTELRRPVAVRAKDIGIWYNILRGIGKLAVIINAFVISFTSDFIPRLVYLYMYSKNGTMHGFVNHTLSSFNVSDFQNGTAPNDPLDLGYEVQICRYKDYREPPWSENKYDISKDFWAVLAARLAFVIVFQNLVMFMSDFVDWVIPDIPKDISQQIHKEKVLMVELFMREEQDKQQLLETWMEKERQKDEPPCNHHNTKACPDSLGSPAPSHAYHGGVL
How it was run: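 HEK293T stably expressing eYFP (H149Q, I153L) and hTMEM16A(abc), preincubated 30 min at room temperature with compound in HBSS/10 mM HEPES pH 7.4.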

[2] = average, 22-point dose-response, iodide as permeant anion, read-out: TMEM16A eYFP Assay (IC50)
[3] = supplement, iodide as permeant anion, maximum concentration 55.6, read-out: TMEM16A eYFP Assay IC50

| SMILES | IC50 [1] [nM] | IC50 (hTMEM16A (abc); [2]) | IC50 (hTMEM16A (abc); [3]) [nM] | scope of block of ionomycin-induced iodide eYFP quenching (hTMEM16A (abc)) | maximal percent inhibition in the TMEM16A/eYFP assay (hTMEM16A (abc); iodide as permeant anion) [%] | times more potent than other antagonists in the halide-sensitive YFP assay (hTMEM16A (abc); versus eight benchmark antagonists) | IC50 (hTMEM16A (abc); TMEM16A eYFP Assay IC50, supplement, iodide as permeant anion, maximum concentration 55.6) [nM] |
| --- | --- | --- | --- | --- | --- | --- | --- |
| Oc1ccc(Cl)cc1Cc1cc(Cl)ccc1O [Dichlorophen] | 938 ± 360 | 4370 ± 1210 nM | 4360 ± 1210 | fully inhibited |  |  |  |
| O=C(Nc1ncc([N+](=O)[O-])s1)c1ccccc1O [Tizoxanide] |  | 398 nM |  | partially inhibiting |  |  |  |
| O=C(Nc1ncc([N+](=O)[O-])s1)c1cccs1 [NTTP] | 25200 ± 5440 | 2480 ± 1240 nM |  |  |  |  |  |
| O=C(Nc1ccc(Cl)cc1)c1cc(Cl)ccc1O [Cpd 5] | 71 ± 20 | 370 ± 131 nM | 370 ± 131 | only partially inhibited |  |  |  |
| N#Cc1c(C(F)(F)F)cc(O)n2c1nc1ccccc12 [1PBC] | 964 ± 756 | 1520 ± 1360 nM | 1520 ± 1360 | only partial inhibition |  |  |  |
| CCc1c(C)nc(SCC(=O)Nc2nc(-c3ccc(OC)cc3)cs2)[nH]c1=O [T16Ainh-A01] | > 30000 | > 50000 nM | > 55600 | inactive |  |  |  |
| O=C(Nc1ccc([N+](=O)[O-])cc1Cl)c1cc(Cl)ccc1O [Niclosamide] | 389 ± 478 | 130 nM and 132 nM | 132 ± 67.1 | only partial inhibition | 62.4 ± 12.0 | 10–200 times |  |
| O=C(O)c1cccnc1Nc1cccc(C(F)(F)F)c1 [Niflumic Acid] | 6280 ± 1590 | 26600 ± 11800 nM |  |  |  |  |  |
| COc1cc([N+](=O)[O-])ccc1NC(=O)c1cc(Cl)c2ccccc2c1O [Cpd 4] | 178 ± 7 | 901 ± 524 nM | 954 ± 648 | only partial inhibition |  |  |  |
| O=C(Nc1ccc([N+](=O)[O-])cc1)c1cc(Cl)c2ccccc2c1O [Cpd 3] | 17 | 184 ± 89 nM |  | only partially inhibited |  |  |  |
| COc1cc(Nc2ccc([N+](=O)[O-])cc2C(=O)O)cc2ccccc12 [MONNA] | 201 ± 162 | 6300 ± 1470 nM | 6290 ± 1470 | fully inhibited |  |  |  |
| O=C(Nc1ccc([N+](=O)[O-])cc1)c1cc(Cl)ccc1O [Cpd 2] | 44 |  |  | only partially inhibited |  |  |  |
| CC(C)(C)C1CCc2c(sc(NC(=O)c3ccco3)c2C(=O)O)C1 (stereo not shown) [CaCCinh-A01] | 4760 ± 1230 |  |  |  |  |  |  |
| CCc1oc2ccccc2c1C(=O)c1cc(Br)c(O)c(Br)c1 [Benzbromarone] | 208 ± 248 | 1510 ± 504 nM |  | fully inhibited |  |  | 1510 ± 504 |

— publication PMC6382696, “Drug Repurposing: The Anthelmintics Niclosamide and Nitazoxanide Are Potent TMEM16A Antagonists That Fully Bronchodilate Airways” (Frontiers in Pharmacology, 2019)
